Assay results: ChEMBL document CHEMBL4706519, “Evaluation of N-phenyl-2-aminothiazoles for treatment of multi-drug resistant and intracellular Staphylococcus aureus infections” (Eur J Med Chem, 2020)

How the values were obtained:
[1] = tested on: Staphylococcus aureus; assay: microbe, parasite or virus in culture; conditions: NRS119
[2] = tested on: Enterococcus faecalis; assay: microbe, parasite or virus in culture; conditions: ATCC 51299
[3] = tested on: Staphylococcus aureus; assay: Antibacterial activity against vancomycin-resistant Staphylococcus aureus 10 assessed as inhibition of bacterial growth measured after 18 to 20 hrs by CLSI protocol based broth microdilution method; type: functional; conditions: time 18-20 hrs
[4] = tested on: Staphylococcus aureus; assay: microbe, parasite or virus in culture; conditions: USA500 NRS385
[5] = tested on: Listeria monocytogenes; assay: Antibacterial activity against Listeria monocytogenes ATCC 19111 assessed as inhibition of bacterial growth measured after 18 to 20 hrs by CLSI protocol based broth microdilution method; type: functional; conditions: time 18-20 hrs
[6] = tested on: Streptococcus pneumoniae; assay: Antibacterial activity against methicillin-resistant Streptococcus pneumoniae ATCC 700677 assessed as inhibition of bacterial growth measured after 18 to 20 hrs by CLSI protocol based broth microdilution method; type: functional; conditions: time 18-20 hrs
[7] = tested on: Staphylococcus aureus; assay: Antibacterial activity against vancomycin-resistant Staphylococcus aureus 12 assessed as inhibition of bacterial growth measured after 18 to 20 hrs by CLSI protocol based broth microdilution method; type: functional; conditions: time 18-20 hrs
[8] = tested on: Staphylococcus aureus; assay: microbe, parasite or virus in culture; conditions: USA400 NRS123
[9] = tested on: Staphylococcus epidermidis; assay: Antibacterial activity against methicillin-resistant Staphylococcus epidermidis NRS101 assessed as inhibition of bacterial growth measured after 18 to 20 hrs by CLSI protocol based broth microdilution method; type: functional; conditions: time 18-20 hrs
[10] = tested on: Enterococcus faecium; assay: Antibacterial activity against vancomycin-resistant Enterococcus faecium ATCC 700221 assessed as inhibition of bacterial growth measured after 18 to 20 hrs by CLSI protocol based broth microdilution method; type: functional; conditions: time 18-20 hrs
[11] = tested on: Staphylococcus aureus; assay: microbe, parasite or virus in culture; conditions: NRS107
[12] = tested on: Staphylococcus aureus; assay: microbe, parasite or virus in culture; conditions: ATCC 6538
[13] = tested on: Streptococcus pneumoniae; assay: Antibacterial activity against cephalosporin-resistant Streptococcus pneumoniae ATCC 51916 assessed as inhibition of bacterial growth measured after 18 to 20 hrs by CLSI protocol based broth microdilution method; type: functional; conditions: time 18-20 hrs
[14] = tested on: Staphylococcus aureus; assay: microbe, parasite or virus in culture; conditions: USA700 NRS386
[15] = tested on: Staphylococcus aureus; assay: Bactericidal activity against methicillin-resistant Staphylococcus aureus USA400 NRS123 assessed as log reduction in viable bacteria count at 5 times MIC incubated for 2 hrs in soy broth followed by incubation for 18 to 20 hrs on agar plate by time kill assay; type: functional; conditions: time 20-22 hrs
[16] = Selectivity index, ratio of maximum non-toxic concentration for human Caco-2 cells to MIC for methicillin-resistant Staphylococcus aureus USA500 NRS385; type: toxicity
[17] = tested on: Staphylococcus epidermidis; assay: Ratio of MBC to MIC for methicillin-resistant Staphylococcus epidermidis NRS101 assessed as inhibition of bacterial growth measured after 18 to 20 hrs by CLSI protocol based broth microdilution method; type: functional; conditions: time 18-20 hrs
[18] = tested on: Staphylococcus aureus; assay: Ratio of MIC for methicillin-resistant Staphylococcus aureus USA400 NRS123 measured after 7th passage to MIC for methicillin-resistant Staphylococcus aureus USA400 NRS123 measured after 18 to 20 hrs by broth microdilution assay; type: functional
[19] = tested on: J774; assay: Cytotoxicity against mouse J774 cells assessed as cell viability at 32 ug/ml incubated for 2 hrs by MTS assay; type: cell-based; conditions: j774, 2 h, dose 32 µg/ml
[20] = tested on: Staphylococcus aureus; assay: Antibacterial activity against methicillin-resistant Staphylococcus aureus USA400 NRS123 infected in mouse J774 cells assessed as reduction in intracellular bacterial burden at 2 x MIC measured after 24 hrs relative to control; type: functional
[21] = tested on: Staphylococcus aureus; assay: Ratio of MBC to MIC against methicillin-sensitive Staphylococcus aureus ATCC 6538 assessed as inhibition of bacterial growth measured after 18 to 20 hrs by CLSI broth microdilution method; type: functional; conditions: time 18-20 hrs
[22] = tested on: Streptococcus pneumoniae; assay: Ratio of MBC to MIC for cephalosporin-resistant Streptococcus pneumoniae ATCC 51916 assessed as inhibition of bacterial growth measured after 18 to 20 hrs by CLSI protocol based broth microdilution method; type: functional; conditions: time 18-20 hrs
[23] = tested on: Staphylococcus aureus; assay: Bactericidal activity against methicillin-resistant Staphylococcus aureus USA400 NRS123 assessed as eradication of bacterial count at 5 times MIC incubated for 2 hrs in soy broth followed by incubation for 18 to 20 hrs on agar plate by time kill assay; type: functional; conditions: time 20-22 hrs
[24] = tested on: Escherichia coli; assay: Antibacterial activity against Escherichia coli JW55031 harboring toIC efflux mutant assessed as inhibition of bacterial growth measured after 18 to 20 hrs by broth microdilution method; type: functional; conditions: time 18-20 hrs
[25] = tested on: Listeria monocytogenes; assay: Ratio of MBC to MIC for Listeria monocytogenes ATCC 19111 assessed as inhibition of bacterial growth measured after 18 to 20 hrs by CLSI protocol based broth microdilution method; type: functional; conditions: time 18-20 hrs
[26] = tested on: Staphylococcus aureus; assay: Ratio of MBC to MIC against methicillin-sensitive Staphylococcus aureus NRS107 assessed as inhibition of bacterial growth measured after 18 to 20 hrs by CLSI protocol based broth microdilution method; type: functional; conditions: time 18-20 hrs
[27] = Selectivity index, ratio of maximum non-toxic concentration for human Caco-2 cells to MIC for methicillin-resistant Staphylococcus aureus USA400 NRS123; type: toxicity
[28] = tested on: Enterococcus faecium; assay: Ratio of MBC to MIC for vancomycin-resistant Enterococcus faecium ATCC 700221 assessed as inhibition of bacterial growth measured after 18 to 20 hrs by CLSI protocol based broth microdilution method; type: functional; conditions: time 18-20 hrs
[29] = Selectivity index, ratio of maximum non-toxic concentration for human Caco-2 cells to MIC for methicillin-resistant Staphylococcus aureus USA300 NRS384; type: toxicity
[30] = tested on: Staphylococcus aureus; assay: Antibacterial activity against methicillin-resistant Staphylococcus aureus USA400 NRS123 infected in mouse J774 cells assessed as log reduction in intracellular bacterial burden at 4 x MIC measured after 24 hrs; type: functional
[31] = tested on: Staphylococcus aureus; assay: Antibacterial activity against methicillin-resistant Staphylococcus aureus USA400 NRS123 infected in mouse J774 cells assessed as reduction in intracellular bacterial burden at 4 x MIC measured after 24 hrs relative to control; type: functional
[32] = tested on: Escherichia coli; assay: Antibacterial activity against wild type Escherichia coli BW25113 assessed as inhibition of bacterial growth measured after 18 to 20 hrs by broth microdilution method; type: functional; conditions: time 18-20 hrs
[33] = tested on: Staphylococcus aureus; assay: Ratio of MIC for methicillin-resistant Staphylococcus aureus USA400 NRS123 measured after 14th passage to MIC for methicillin-resistant Staphylococcus aureus USA400 NRS123 measured after 18 to 20 hrs by broth microdilution assay; type: functional
[34] = Selectivity index, ratio of maximum non-toxic concentration for human Caco-2 cells to MIC for methicillin-resistant Staphylococcus aureus NRS119; type: toxicity
[35] = tested on: Staphylococcus aureus; assay: Bactericidal activity against methicillin-resistant Staphylococcus aureus USA400 NRS123 assessed as post-antibiotic effect at 5 times MIC incubated for 2 hrs followed by compound wash-out by viable plate count method; type: functional
[36] = Cytotoxicity against human Caco-2 cells assessed as cell viability at 32 ug/ml incubated for 2 hrs by MTS assay relative to control; type: cell-based; conditions: at 32 µg/mL, read-out: Activity
[37] = tested on: Staphylococcus aureus; assay: Antibacterial activity against methicillin-resistant Staphylococcus aureus USA400 NRS123 infected in mouse J774 cells assessed as log reduction in intracellular bacterial burden at 2 x MIC measured after 24 hrs; type: functional
[38] = tested on: Streptococcus pneumoniae; assay: Ratio of MBC to MIC for methicillin-resistant Streptococcus pneumoniae ATCC 700677 assessed as inhibition of bacterial growth measured after 18 to 20 hrs by CLSI protocol based broth microdilution method; type: functional; conditions: time 18-20 hrs
[39] = tested on: Staphylococcus aureus; assay: Antibacterial activity against methicillin-resistant Staphylococcus aureus USA300 NRS384 assessed as inhibition of bacterial growth measured after 18 to 20 hrs by broth microdilution method; type: functional; conditions: time 18-20 hrs
[40] = tested on: Enterococcus faecalis; assay: Ratio of MBC to MIC for vancomycin-resistant Enterococcus faecalis ATCC 51299 assessed as inhibition of bacterial growth measured after 18 to 20 hrs by CLSI protocol based broth microdilution method; type: functional; conditions: time 18-20 hrs
[41] = Selectivity index, ratio of maximum non-toxic concentration for human Caco-2 cells to MIC for methicillin-resistant Staphylococcus aureus USA700 NRS386; type: toxicity
[42] = physchem; conditions: phosphate-buffered saline, pH 7.4

CC(=O)NC[C@H]1CN(c2ccc(N3CCOCC3)c(F)c2)C(=O)O1 [LINEZOLID]
> 64 µg/mL: MBC [1] | MBC [3]
1 µg/mL: MIC [3] | MIC [4] | MIC [7] | MIC [8] | MIC [9] | MIC [10] | MIC [11] | MIC [12]
≤ 0.5 µg/mL: MIC [5]
64 µg/mL: MIC [1] | MBC [7] | MBC [11] | MBC [14]
32 µg/mL: MBC [4] | MBC [8] | MBC [13]
16 µg/mL: MBC [2] | MBC [5] | MBC [6] | MBC [9] | MBC [10] | MBC [12]

C/C(=N\NC(=N)N)c1ccc(Nc2nc(-c3ccc(Cl)cc3)cs2)cc1
8 µg/mL: MIC [24] | MIC [32]
16: selectivity ratio [16] | selectivity ratio [27] | selectivity ratio [29] | selectivity ratio [34] | selectivity ratio [41]
4 h: PAE [35]
1 µg/mL: MBC [1] | MIC [1] | MIC [2] | MBC [3] | MIC [3] | MIC [4] | MIC [5] | MBC [7] | MIC [7] | MBC [8] | MIC [8] | MBC [9] | MIC [9] | MIC [10] | MBC [11] | MIC [11] | MBC [12] | MIC [12] | MIC [14]
97%: inhibition (INH) [31]
Non-Toxic: Activity [19]
4 µg/mL: MBC [2] | MBC [6] | MBC [13] | MBC [14] | MIC [39]
1.56 log10CFU/ml: Activity [30]
69%: inhibition (INH) [20]
3: Ratio [33]
1: Ratio [17] | Ratio [18] | Ratio [21] | Ratio [22] | Ratio [25] | Ratio [26] | Ratio [28] | Ratio [38] | Ratio [40]
2 µg/mL: MBC [4] | MBC [5] | MIC [6] | MBC [10] | MIC [13]
3 log10CFU/ml: Activity [15]
100%: Activity [23] | viability at 2 h, 32 ug/ml [36]
0.51 log10CFU/ml: Activity [37]

CN[C@H](CC(C)C)C(=O)N[C@H]1C(=O)N[C@@H](CC(N)=O)C(=O)N[C@H]2C(=O)N[C@H]3C(=O)N[C@H](C(=O)N[C@H](C(=O)O)c4cc(O)cc(O)c4-c4cc3ccc4O)[C@H](O)c3ccc(c(Cl)c3)Oc3cc2cc(c3O[C@@H]2O[C@H](CO)[C@@H](O)[C@H](O)[C@H]2O[C@H]2C[C@](C)(N)[C@H](O)[C@H](C)O2)Oc2ccc(cc2Cl)[C@H]1O [VANCOMYCIN]
32 µg/mL: MIC [2]
2 h: PAE [35]
1 µg/mL: MBC [4] | MIC [5] | MBC [8] | MIC [13] | MBC [14]
64 µg/mL: MBC [2] | MIC [3] | MBC [7] | MIC [7]
2 µg/mL: MBC [1] | MIC [6] | MBC [9] | MBC [11] | MBC [12]
> 64 µg/mL: MBC [3] | MBC [10] | MIC [10]

CO[C@H]1/C=C/O[C@@]2(C)Oc3c(C)c(O)c4c(O)c(c(/C=N/N5CCN(C)CC5)c(O)c4c3C2=O)NC(=O)/C(C)=C\C=C\[C@H](C)[C@H](O)[C@@H](C)[C@@H](O)[C@@H](C)[C@H](OC(C)=O)[C@@H]1C [RIFAMPIN]
183 µM: solubility kinetic at 2 h [42]

O=C(O)c1cn(C2CC2)c2cc(N3CCNCC3)c(F)cc2c1=O [CIPROFLOXACIN]
127: Ratio [33]
